Reference: patent US8530407B2, “Multi-component antioxidant compounds, pharmaceutical compositions containing same and their use for reducing or preventing oxidative stress” (Yissum Research Development Company of the Hebrew …, priority 2000, dated 2013)

Key:
[1] = system: reactive oxygen species (ROS) in DHER14 cells; test: Inhibition of ROS production, fluorescent dye DHDCF; assay type: cell-based
Experimental: FIG. 3 represents cellular ROS levels as determined using a fluorescence assay in the presence of CB, NOXi and NAC antioxidants.
The concentration of reactive oxygen species (ROS) in DHER14 cells following administration of antioxidants was determined using the ROS sensitive fluorescent dye DHDCF (fluoresceine derivative). […] The efficacy of CB in reducing ROS was about ˜50 fold better then these two known antioxidants.

[2] = system: JNK (c-Jun NH2-terminal kinase); settings: DHER14 cells exposed to cisplatin (CDDP, 30 μM)
Experimental: (§1) In order to show the efficacy of CB against a stimulant that activates oxidative stress, an inhibition assay of both JNK (c-Jun NH2-terminal kinase) and p38 enzymes in tissue culture was performed.
(§2) NIH3T3 cells overexpressing EGF receptor (DHER14 cells) (55) were exposed to cisplatin (CDDP, 30 μM) which activates specific enzymes involved in apoptosis including JNK and p38.
(§3) Two known antioxidants were used as positive controls, NOXi (at 300 and 1000 μM) and NAC (NAC) (at 1000 μM).

p38 = settings: DHER14 cells exposed to cisplatin (CDDP, 30 μM)
Experimental: as §1, §2, §3

[3] = 20 μM, detected by specific antibodies

efficacy against JNK phosphorylation compared with CB at 20 μM ([2]; 1 mM)	Compound	ROS level ([1]; 20 μM)	efficacy in reducing ROS relative to NOXi and NAC ([1]; CB 20 μM versus 1000 μM NAC or 1000 μM NOXi) [fold]	phosphorylated JNK [2, 3]	phosphorylated form of JNK ([2]; increasing concentrations)	phosphorylated p38 (p38; [3])	phosphorylated form of p38 (p38; increasing concentrations)	efficiency in reducing ROS compared with CB at 20 μM ([1]; 1000 μM)	efficacy against p38 phosphorylation compared with CB at 20 μM (p38; 1 mM)
–	N-Acetyl Cysteine-Glycine-Proline-Cysteine-Amid [CB]	reduction of ROS below normal levels was prominent	~50	not detected at all	dramatic reduction	not detected at all	dramatic reduction	–	–
similar	CC(=O)N[C@@H](CS)C(=O)O [NAC, N-acetyl cysteine, reference compound]	–	–	–	–	–	–	as efficient as	similar
